From ChEMBL document CHEMBL1201862, “PubChem BioAssay data set” (2004)
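Test compounds were applied to cells in 96-well plates for 48 hours at 5 doses. At the GI50, growth is halved.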 The source made the active and inactive calls. No stated cut-off is given here; in the data, active = GI50 up to about 1.1 µM and inactive = higher.

How the values were obtained:
Assay in all cases: NCI anticancer screen, dose series, 48 h
A498 = tested on: A498
BT-549 = tested on: BT-549
DMS-273 = tested on: DMS-273
EKVX = tested on: EKVX
HCT-116 = tested on: HCT-116
HT-29 = tested on: HT-29
IGROV-1 = tested on: IGROV-1
KM12 = tested on: KM12
MDA-MB-231 = tested on: MDA-MB-231
MDA-MB-435 = tested on: MDA-MB-435
NCI-H522 = tested on: NCI-H522
PC-3 = tested on: PC-3
RXF 393 = tested on: RXF 393
SF-539 = tested on: SF-539
SK-MEL-5 = tested on: SK-MEL-5
SN12C = tested on: SN12C
SNB-75 = tested on: SNB-75
SW-620 = tested on: SW-620
T47D = tested on: T47D
SK-MEL-28 = tested on: SK-MEL-28

O=C(NC(=O)c1ccccc1[N+](=O)[O-])Nc1ccc(Oc2ncc(Cl)cn2)c([N+](=O)[O-])c1
GI50 (A498): 301 nM (active) | GI50 (BT-549): 31500 nM (inactive) | GI50 (DMS-273): 73.8 nM (active) | GI50 (EKVX): 2930 nM (inactive) | GI50 (HCT-116): 175 nM (active) | GI50 (HT-29): 147 nM (active) | GI50 (IGROV-1): 368 nM (active) | GI50 (KM12): 97.5 nM (active) | GI50 (MDA-MB-231): 281 nM (active) | GI50 (MDA-MB-435): 21.4 nM (active) | GI50 (NCI-H522): 115 nM (active) | GI50 (PC-3): 196 nM (active) | GI50 (RXF 393): 373 nM (active) | GI50 (SF-539): 233 nM (active) | GI50 (SK-MEL-5): 77.3 nM (active) | GI50 (SN12C): 700 nM (active) | GI50 (SNB-75): 76.7 nM (active) | GI50 (SW-620): 106 nM (active) | GI50 (T47D): 414 nM (active)

O=c1[nH]c2ccccc2nc1CBr
GI50 (A498): 21800 nM (inactive) | GI50 (BT-549): 9270 nM (inactive) | GI50 (DMS-273): 1610 nM (inactive) | GI50 (EKVX): 3300 nM (inactive) | GI50 (HCT-116): 8390 nM (inactive) | GI50 (HT-29): 6240 nM (inactive) | GI50 (IGROV-1): 4220 nM (inactive) | GI50 (KM12): 2560 nM (inactive) | GI50 (MDA-MB-231): 11200 nM (inactive) | GI50 (MDA-MB-435): 12300 nM (inactive) | GI50 (NCI-H522): 638 nM (active) | GI50 (PC-3): 12600 nM (inactive) | GI50 (RXF 393): 1820 nM (inactive) | GI50 (SF-539): 9230 nM (inactive) | GI50 (SK-MEL-28): 12100 nM (inactive) | GI50 (SK-MEL-5): 10800 nM (inactive) | GI50 (SN12C): 9380 nM (inactive) | GI50 (SNB-75): 12800 nM (inactive) | GI50 (SW-620): 4190 nM (inactive) | GI50 (T47D): 12500 nM (inactive)
